Columns and labels:
[1] = tested on: MCF-7 breast cancer cells; assay: Cell viability (MTT) assay, MCF-7; assay type: cell-based
Procedure: MCF-7 is a commonly used tumor cell line.
(§1) The cell lines present in this study were obtained from Procell Life Science & Technology Co. Ltd. MCF-7, HepG2 and SJSA-1 cells were cultured in DMEM medium (DMEM, Gibco) supplemented with 10% fetal bovine serum (FBS, Gibco), 1% penicillin-streptomycin (Hyclone) at 37℃ in a humid environment with 5% CO2. HK-2 cells were cultured in DMEM/F12 (1:1) medium and placed in incubators in the same environment.
(§2) Cell viability was determined by MTT assay. MCF-7, HepG2, SJSA-1 and HK-2 cells (6 × 10^3 cells /well) were seeded in 96-well plates with serum-free medium for 24 h. […] After 48 or 72 h, 10 μL MTT (5 mg/mL, Beyotime) was added and incubated at 37 °C for 4 h. Then 100 μL of lysate was added. After complete dissolution of the crystal, the absorbance was measured at 540 nm and expressed as the average percentage of absorbance between treated and control cells. The value for control cells was set at 100%. Cell survival rate was calculated as the ratio of the absorbance of the cells and negative control after minus the blank absorbance respectively.

HepG2 cells = assay: Cell viability (MTT) assay, HepG2; assay type: cell-based
Procedure: (§3) To investigate the selectivity of these derivatives towards different tumor cell lines, we also selected HepG2 and osteosarcoma cell line SJSA-1 cells to evaluate the anti-proliferation activity of the derivatives. […] Except for compounds A2 and A11, the effects of other compounds on SJSA-1 were not strong.
as §1, §2

[2] = tested on: osteosarcoma cell line SJSA-1; assay: Cell viability (MTT) assay, SJSA-1; assay type: cell-based
Procedure: as §3, §1, §2

HK-2 cells = assay: Cell viability (MTT) assay, HK-2 normal cells (cytotoxicity); assay type: cell-based
Procedure: as §1, §2

Row | SMILES | Viability of Cells (% of Control) ([1]; 25 µM) | Viability of Cells (% of Control) ([1]; 50 µM) | Viability of Cells (% of Control) ([1]; 100 µM) | Viability of Cells (% of Control) (HepG2 cells; 25 µM) | Viability of Cells (% of Control) (HepG2 cells; 50 µM) | Viability of Cells (% of Control) ([2]; 50 µM) | Viability of Cells (% of Control) ([2]; 100 µM) | melting point | Viability of Cells (% of Control) (HK-2 cells; 50 µM) | Viability of Cells (% of Control) (HK-2 cells; 100 µM) | inhibition at 50 µM ([1]; Homo sapiens, MCF7, MCF-7, 50 µM, 48 h, read-out: inhibition rate of MCF-7) | anti-proliferation activity on MCF-7 compared with GAA ([1]; MCF-7, 48 h) | anti-proliferation activity on HepG2 (in words) (HepG2 cells; HepG2, 48 h) | toxicity to HK2 cells (in words) (HK-2 cells)
1 | CCCCNC(=O)[C@H](C)CC(=O)C[C@@H](C)[C@H]1C[C@H](O)[C@@]2(C)C3=C(C(=O)C[C@]12C)[C@@]1(C)CCC(=O)C(C)(C)[C@@H]1C[C@@H]3O [Compound A1, (n-butyl)-(7β,15α,25R)-7,15-Dihydroxy-3,11,23-Trioxolanost-8-en-26-oic Amide] | 96.6 ± 6.2 % of Control | 114.3 ± 1.2 % of Control | 78.7 ± 3.4 % of Control | 90.5 ± 1.1 % of Control | 87.2 ± 3.1 % of Control | 87.9 ± 0.9 % of Control | 74.0 ± 3.8 % of Control | 120.7 to 121.5 °C | – | – | – | – | – | –
2 | Cc1ccc(NC(=O)[C@H](C)CC(=O)C[C@@H](C)[C@H]2C[C@H](O)[C@@]3(C)C4=C(C(=O)C[C@]23C)[C@@]2(C)CCC(=O)C(C)(C)[C@@H]2C[C@@H]4O)cc1 [Compound A3, (4-Methylphenyl)-(7β,15α,25R)-7,15-Dihydroxy-3,11,23-Trioxolanost-8-en-26-oic Amide] | 110.9 ± 2.2 % of Control | 114.3 ± 1.2 % of Control | 78.7 ± 3.9 % of Control | 90.1 ± 1.1 % of Control | 76.3 ± 1.1 % of Control | 85.3 ± 1.1 % of Control | 83.3 ± 3.0 % of Control | 174.3 to 175.5 °C | – | – | – | – | – | –
3 | C[C@H](CC(=O)C[C@@H](C)[C@H]1C[C@H](O)[C@@]2(C)C3=C(C(=O)C[C@]12C)[C@@]1(C)CCC(=O)C(C)(C)[C@@H]1C[C@@H]3O)C(=O)Nc1ccc(Cl)cc1 [Compound A4, (4-Chlorophenyl)-(7β,15α,25R)-7,15-Dhydroxy-3,11,23-Trioxolanost-8-en-26-oic Amide] | 116.4 ± 4.8 % of Control | 120.7 ± 2.0 % of Control | 108.9 ± 1.1 % of Control | 87.7 ± 1.9 % of Control | 72.0 ± 1.9 % of Control | 83.9 ± 5.4 % of Control | 57.4 ± 4.2 % of Control | 184.9 to 185.3 °C | – | – | – | – | – | –
4 | Cc1ccc(CNC(=O)[C@H](C)CC(=O)C[C@@H](C)[C@H]2C[C@H](O)[C@@]3(C)C4=C(C(=O)C[C@]23C)[C@@]2(C)CCC(=O)C(C)(C)[C@@H]2C[C@@H]4O)cc1 [Compound A5, (4-methylbenzyl)-(7β,15α,25R)-7,15-Dihydroxy-3,11,23-Trioxolanost-8-en-26-oic Amide] | 115.0 ± 2.9 % of Control | 107.4 ± 6.7 % of Control | 99.5 ± 1.0 % of Control | 78.5 ± 3.0 % of Control | 69.1 ± 1.9 % of Control | 75.0 ± 2.6 % of Control | 64.5 ± 1.2 % of Control | 208.7 to 209 °C | 110.4 ± 13.1 % of Control | 97.0 ± 8.8 % of Control | – | – | – | –
5 | C[C@H](CC(=O)C[C@@H](C)[C@H]1C[C@H](O)[C@@]2(C)C3=C(C(=O)C[C@]12C)[C@@]1(C)CCC(=O)C(C)(C)[C@@H]1C[C@@H]3O)C(=O)NCc1ccc(F)cc1 [Compound A6, (4-Fluorobenzyl)-(7β,15α,25R)-7,15-Dihydroxy-3,11,23-Trioxolanost-8-en-26-oic Amide] | 77.1 ± 4.2 % of Control | – | 26.4 ± 1.5 % of Control | 84.0 ± 0.8 % of Control | 76.6 ± 1.6 % of Control | 92.6 ± 3.1 % of Control | 65.8 ± 3.2 % of Control | 178.4 to 179.3 °C | 89.6 ± 6.9 % of Control | 80.2 ± 9.0 % of Control | 63.6% | significant anti-proliferation activities | weaker anti-proliferation effect | some toxicity

From publication PMC10004777 (Molecules, 2023)
